{
  "source": "patent US7579338B2",
  "about": "“Methods and compositions for treating atheroma, tumors and other neoplastic tissues” (Pharmacyclics, Inc., priority 1999, dated 2009)",
  "key": {"[1]": {"test_system": "MES-SA human uterine cells", "experiment": "Proliferation of MES-SA cells with ascorbate and texaphyrin (MTT)", "type": "cell-based", "settings": "for cytotoxic effect of texaphyrin with 333 μM ascorbate: texaphyrin 25-100 μM, 5 hours exposure, MTT after 72 hours; for cytotoxic effect of texaphyrin at lower concentrations of ascorbate: ascorbate below 333 μM (111 μM and 62.5 μM for GdTex); for cytotoxic/inhibitory effect of texaphyrin in the absence of ascorbate: no ascorbate, texaphyrin up to 100 μM", "protocol": "The proliferation of MES-SA human uterine cells (Harker, W. G.; MacKintosh, F. R.; Sikic, B. I. Cancer Res. 1983, 43, 4943-4950) grown in RPMI-1640 medium in the presence of ascorbate or complex was used to assess the formation of hydrogen peroxide under cell culture conditions.\n(§1) 5A. Materials and Methods. MES-SA cells were allowed to adhere to (4) 96-well microtiter plates (4000 cells per well) overnight in 160 μL RPMI medium. Stock ascorbate 3.0 mM in medium (80 μL) was serially diluted (1:3) in rows B through F (discarding the final 80 μL). Row G was used for no-ascorbate control. Stock solutions of GdTex (2 mM in 5% mannitol) diluted in medium and 5% mannitol were prepared and added to the plates to give a final volume of 200 μL in all wells. Columns 2 and 3 contained 100 μM GdTex; columns 4 and 5 contained 75 μM GdTex, columns 6 and 7 contained 50 μM GdTex; columns 8 and 9 contained 25 μM GdTex; and columns 10 and 11 contained no GdTex (all concentrations final). Final mannitol concentration was 0.25% in all wells. The plates were incubated at 37 C under a 5% CO2/95% air atmosphere. Complex-containing medium was exchanged for fresh medium after 5 hours, and plates were incubated an additional 72 hours prior to analysis for viability using the tetrazolium dye, MTT (Mosmann, T. J. Immunol. Methods 1983, 65, 55-63). In brief, 20 μL MTT dye (Sigma Chemical, St. Louis, Mo., catalogue no. M 2128, 5 mg/mL solution in phosphate buffered saline) was added to cells in media to give a final volume of 200 μL. The plates were incubated at 37° C. for ca. 2 hours, whereupon the media was removed and isopropyl alcohol (100 μL/well) was added. Plates were vortexed for ca. 3 minutes to dissolve MTT formazan, then read on a microplate reader at 560-650 nm. Plate absorbances were normalized to wells containing neither ascorbate nor GdTex to allow plate to plate comparison. Data for each concentration of GdTex and ascorbate is the average of eight wells.\nThe proliferation of MES-SA human uterine cells grown in RPMI-1640 medium in the presence of ascorbate and LuTex was used to assess the production of hydrogen peroxide under cell culture conditions following the protocol outlined in the previous example."}, "[2]": {"test_system": "EMT-6 mouse mammary sarcoma cells", "experiment": "Proliferation of EMT-6 cells with NADPH and texaphyrin (MTT)", "type": "cell-based", "settings": "for inhibitory effect of texaphyrin with 1000 μM and 333 μM NADPH: NADPH 1000 μM and 333 μM; for inhibitory effect of texaphyrin at lower concentrations of NADPH: NADPH below 333 μM; for inhibitory effect of texaphyrin in the absence of NADPH: no NADPH", "protocol": "as §1\n(§2) The proliferation of EMT-6 mouse mammary sarcoma (Rockwell, S. C., et al., J. Natl. Cancer Inst. 1972, 49, 735-749) cells grown in RPMI-1640 medium in the presence of NADPH and motexafin lutetium was used to assess the production of hydrogen peroxide under cell culture conditions following the protocol outlined in the previous example.\nas §2, with “GdTex” for “motexafin lutetium”"}, "MES-SA cells": {"test_system": "MES-SA cells", "experiment": "Radiation sensitization by clonogenic assay", "type": "cell-based, human", "protocol": "The response of MES-SA cells to ionizing radiation was studied using a clonogenic assay format to confirm radiation sensitization potential.\nMaterials and Methods. MES-SA cells (200 to 5,000 cells per dish) were plated in T-25 flasks in 8.5 mL McCoys 5A containing 10% FBS (Gibco-BRL) and ca. 2% penicillin/streptomycin solution (Sigma) and incubated at 37° C. overnight. Stock BSO, ascorbate, GdTex (or a control 5% mannitol) solutions were prepared and 0.5 mL of each added to each flask to give a final volume of 10 mL (final concentrations of BSO, ascorbate and GdTex were 100 μM, 5 μM and 50 μM, respectively) and the cells incubated for 24 hr, whereupon the flasks were irradiated using a 137Cs irradiator (Model 40 Gammacell, J. L. Shepherd & Assoc., San Fernando, Calif.) at a dose rate of 0.805 Gy/min. Medium was removed immediately after irradiation, the cells were washed with fresh medium (5.0 mL) followed by the addition of fresh medium (10 mL) and incubation for an additional 11 days. Colonies were fixed and stained with 1% crystal violet and then counted."}, "[3]": {"experiment": "Production of H2O2 in the presence of NADPH (Bioxytech H2O2-560 colorimetric)", "type": "biochemical", "settings": "NADPH plus 0.05 molar equivalent texaphyrin, no catalase, over the course of 100 minutes", "protocol": "• Stock NADPH (Sigma N 7505) (prepared fresh): 10.14 mg/(10 mL×833.4 mg/mmol)=1.217 mM • Stock LuTex: 5.02 mg/(10.0 mL water×1166 mg/mmol)=[…] • Stock 4× Buffer: 200 mM HEPES, pH 7.5; 400 mM NaCl These were combined to form the reaction mixture: 200 μL 4× Buffer, 200 μL NADPH Stock, 371.8 μL Water, 28.2 μL LuTex Stock. This was analyzed as indicated below. As a control, a solution in which the LuTex complex was not added was prepared as above, with suitable adjustment of the volume of water, and analyzed concurrently. In similar manner, a solution was prepared as above except that 2 μL catalase (Boeringer-Mannheim 106 836, now Roche Molecular Biochemicals, Indianapolis, Ind.) was added, and analyzed concurrently.\nA reaction mixture was prepared containing NADPH, buffer, and water. Texaphyrin catalyst, eg., 0.05 molar equivalent, was added to this reaction mixture, vortexed briefly, and incubated at ambient temperature in the dark. […] The absorbance at 240 nm was used to standardize this solution, which was further diluted and used to construct a standard H2O2 curve at 560 nm in conjunction with the H2O2 calorimetric reagent. […]\nMeasurements of the absorbance at 560 nm (with appropriate subtraction of the background absorbance of the reagent at this wavelength) were made of samples taken at the various time points."}},
  "data": [
    {"smiles": "CC(=O)[O-].CC(=O)[O-].CCc1c(CC)c2cc3nc(cnc4cc(OCCOCCOCCOC)c(OCCOCCOCCOC)cc4ncc4nc(cc1[n-]2)C(CCCO)=C4C)C(C)=C3CCCO.O.[Gd+3]", "note": "[GdTex, motexafin gadolinium]", "values": [
      {"measurement": "cytotoxic effect of texaphyrin with 333 μM ascorbate", "setting": "[1]", "result": "complete cytotoxicity"},
      {"measurement": "cytotoxic effect of texaphyrin at lower concentrations of ascorbate", "setting": "[1]", "result": "dose-response was observed"},
      {"measurement": "cytotoxic/inhibitory effect of texaphyrin in the absence of ascorbate", "setting": "[1]", "result": "no cytotoxic effect"},
      {"measurement": "inhibitory effect of texaphyrin with 1000 μM and 333 μM NADPH", "setting": "[2]", "result": "dose-response was observed"},
      {"measurement": "inhibitory effect of texaphyrin at lower concentrations of NADPH", "setting": "[2]", "result": "No inhibitory effect"},
      {"measurement": "inhibitory effect of texaphyrin in the absence of NADPH", "setting": "[2]", "result": "no inhibitory effect"},
      {"measurement": "radiation response, co-administration", "setting": "MES-SA cells; 50 μM GdTex and 100 μM BSO co-administered, 24 h prior to irradiation", "result": "radiation response significantly greater than the sum of the responses obtained from them individually"},
      {"measurement": "effect on clonogenic survival as a function of radiation, single agent", "setting": "MES-SA cells; 50 μM GdTex or 100 μM BSO for 24 h prior to irradiation, ascorbate-containing medium", "result": "relatively small effect on clonogenic survival"}
    ]},
    {"smiles": "CC(=O)[O-].CC(=O)[O-].CCc1c(CC)c2cc3nc(cnc4cc(OCCOCCOCCOC)c(OCCOCCOCCOC)cc4ncc4nc(cc1[n-]2)C(CCCO)=C4C)C(C)=C3CCCO.O.[Lu+3]", "note": "[LuTex, motexafin lutetium]", "values": [
      {"measurement": "H2O2 produced", "setting": "[3]", "result": "Approximately 40 μM"},
      {"measurement": "cytotoxic effect of texaphyrin with 333 μM ascorbate", "setting": "[1]", "result": "dose-response was observed"},
      {"measurement": "cytotoxic effect of texaphyrin at lower concentrations of ascorbate", "setting": "[1]", "result": "No inhibitory effect"},
      {"measurement": "cytotoxic/inhibitory effect of texaphyrin in the absence of ascorbate", "setting": "[1]", "result": "no inhibitory effect"},
      {"measurement": "inhibitory effect of texaphyrin with 1000 μM and 333 μM NADPH", "setting": "[2]", "result": "dose-response was observed"},
      {"measurement": "inhibitory effect of texaphyrin at lower concentrations of NADPH", "setting": "[2]", "result": "No inhibitory effect"},
      {"measurement": "inhibitory effect of texaphyrin in the absence of NADPH", "setting": "[2]", "result": "no inhibitory effect"}
    ]}
  ]
}
